Test results from patent US20220125765A1, “PHARMACEUTICAL COMBINATIONS COMPRISING MEBENDAZOLE AND A STRONG OR MODERATE CYP1A2 INHIBITOR” (ZEPHAPHARM LTD, priority 2019, published 2022).
Read-outs that look alike come from different tables or passages of the source. One block for each molecule: values may come before it.

What was measured:
[1] = Stability in human liver microsomes without and with cimetidine or furafylline (Example 4); type: in vitro ADME; settings: substrate 1 μM; for half-life at 1 μM / microsomal CLint at 1 μM: human, liver microsomes
Procedure: A minus cofactor control incubation was included for each compound tested where 0.1 M phosphate buffer pH 7.4 was added instead of NADPH (minus NADPH). […] The samples were analysed for mebendazole or phenacetin using LC-MS/MS.
A minus cofactor control incubation was included for each compound tested where 0.1 M phosphate buffer pH 7.4 was added instead of cofactor (minus NADPH). […] The samples were analysed for mebendazole or phenacetin using LC-MS/MS.

[2] = Stability in human cryopreserved hepatocytes without and with cimetidine or furafylline (Example 5); type: in vitro ADME; settings: human, substrate 1 μM, read-out: t1/2
Procedure: The final incubation volume was 500 μL. Two control compounds were included with each species, alongside appropriate vehicle control.
The samples were analysed for mebendazole or ethoxycoumarin using LC-MS/MS.
The final incubation volume was 500 μL.
A positive control compound, ethoxycoumarin, for CYP1A2 was included. […] The samples were analysed for mebendazole or ethoxycoumarin using LC-MS/MS.

CYP2B6 = molecular target: T1, CYP2B6 (Homo sapiens, UniProt P20813); assay: Cytochrome P450 reaction phenotyping, recombinant CYP2B6 (Bactosomes); settings: CYP2B6, substrate 1 μM
T1 sequence (P20813 1-491): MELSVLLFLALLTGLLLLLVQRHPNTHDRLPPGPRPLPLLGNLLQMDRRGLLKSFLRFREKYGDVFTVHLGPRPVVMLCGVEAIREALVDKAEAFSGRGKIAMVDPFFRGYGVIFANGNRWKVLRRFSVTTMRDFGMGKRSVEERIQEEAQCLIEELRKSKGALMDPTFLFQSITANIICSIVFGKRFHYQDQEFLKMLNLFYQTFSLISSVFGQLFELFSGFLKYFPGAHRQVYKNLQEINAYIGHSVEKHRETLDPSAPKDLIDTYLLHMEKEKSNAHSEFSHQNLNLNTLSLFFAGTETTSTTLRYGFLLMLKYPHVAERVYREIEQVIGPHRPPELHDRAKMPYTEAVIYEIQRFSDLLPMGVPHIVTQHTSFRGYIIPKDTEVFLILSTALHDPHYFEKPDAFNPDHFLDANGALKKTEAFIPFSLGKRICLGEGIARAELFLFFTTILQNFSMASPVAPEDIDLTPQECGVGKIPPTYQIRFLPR
Procedure: (§1) Incubations were also performed using control Bactosomes™ (no P450 enzymes present) to reveal any non-enzymatic degradation. Control compounds known to be metabolised specifically by each P450 isoform were included. All incubations were performed singularly for each test compound.
(§2) Incubations were also performed using control Bactosomes™ (no P450 enzymes present) to reveal any non-enzymatic degradation. Control compounds known to be metabolised specifically by each P450 isoform were included. All incubations were performed singularly for each test compound. […] The reactions were stopped by transferring an aliquot of incubate to quench solvent at the appropriate time points, in a 1:3 ratio. The termination plates were centrifuged at 3,000 rpm for 20 min at 4° C. to precipitate the protein.

CYP3A4 = CYP3A4 (Homo sapiens, UniProt P08684); assay: Cytochrome P450 reaction phenotyping, recombinant CYP3A4 (Bactosomes); settings: human, recombinant enzyme, pH 7.4
Procedure: as §1, §2

CYP2D6 = CYP2D6 (Homo sapiens, UniProt P10635); assay: Cytochrome P450 reaction phenotyping, recombinant CYP2D6 (Bactosomes); settings: human, recombinant enzyme, pH 7.4
Procedure: as §1, §2

CYP2C9 = CYP2C9 (Homo sapiens, UniProt P11712); assay: Cytochrome P450 reaction phenotyping, recombinant CYP2C9 (Bactosomes); settings: human, recombinant enzyme, pH 7.4
Procedure: as §1, §2

CYP2C8 = molecular target: T2, CYP2C8 (Homo sapiens, UniProt P10632); assay: Cytochrome P450 reaction phenotyping, recombinant CYP2C8 (Bactosomes); settings: CYP2C8, substrate 1 μM
T2 sequence (P10632 1-490): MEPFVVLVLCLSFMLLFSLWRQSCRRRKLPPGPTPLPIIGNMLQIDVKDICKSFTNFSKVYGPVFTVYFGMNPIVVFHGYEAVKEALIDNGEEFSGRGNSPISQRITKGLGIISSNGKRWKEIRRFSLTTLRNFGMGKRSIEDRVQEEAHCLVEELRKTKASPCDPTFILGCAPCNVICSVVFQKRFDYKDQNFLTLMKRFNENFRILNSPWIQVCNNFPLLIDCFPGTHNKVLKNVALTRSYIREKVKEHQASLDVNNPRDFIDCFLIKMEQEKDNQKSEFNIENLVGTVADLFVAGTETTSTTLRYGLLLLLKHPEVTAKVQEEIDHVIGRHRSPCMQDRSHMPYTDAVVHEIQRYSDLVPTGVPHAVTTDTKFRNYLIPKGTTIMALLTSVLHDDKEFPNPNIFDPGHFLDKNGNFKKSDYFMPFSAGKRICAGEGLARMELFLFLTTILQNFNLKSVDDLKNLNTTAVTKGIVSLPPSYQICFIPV
Procedure: as §1, §2

[3] = Ricobendazole microsomal metabolic stability without and with cimetidine or furafylline (Example 8); type: in vitro ADME; settings: human, liver microsomes; for half-life at 0.1 μM: read-out: t½
Procedure: Incubation in the absence of NADPH was also performed to assess non-CYP mediated stability. Appropriate control compounds were also incubated.
A minus cofactor control incubation was included for each compound tested where 0.1 M phosphate buffer pH 7.4 was added instead of NADPH (minus NADPH). […] A control compound (phenacetin) was included (incubated without and with inhibitors as described above). All incubations were performed singularly for each test compound. Each incubation was carried out for 0, 5, 15, 30 and 45 min. The control (minus NADPH) was incubated for 45 min only.

CYP1A2 = molecular target: T3, CYP1A2 (Homo sapiens, UniProt P05177); assay: Cytochrome P450 reaction phenotyping, recombinant CYP1A2 (Bactosomes)
T3 sequence (P05177 1-516): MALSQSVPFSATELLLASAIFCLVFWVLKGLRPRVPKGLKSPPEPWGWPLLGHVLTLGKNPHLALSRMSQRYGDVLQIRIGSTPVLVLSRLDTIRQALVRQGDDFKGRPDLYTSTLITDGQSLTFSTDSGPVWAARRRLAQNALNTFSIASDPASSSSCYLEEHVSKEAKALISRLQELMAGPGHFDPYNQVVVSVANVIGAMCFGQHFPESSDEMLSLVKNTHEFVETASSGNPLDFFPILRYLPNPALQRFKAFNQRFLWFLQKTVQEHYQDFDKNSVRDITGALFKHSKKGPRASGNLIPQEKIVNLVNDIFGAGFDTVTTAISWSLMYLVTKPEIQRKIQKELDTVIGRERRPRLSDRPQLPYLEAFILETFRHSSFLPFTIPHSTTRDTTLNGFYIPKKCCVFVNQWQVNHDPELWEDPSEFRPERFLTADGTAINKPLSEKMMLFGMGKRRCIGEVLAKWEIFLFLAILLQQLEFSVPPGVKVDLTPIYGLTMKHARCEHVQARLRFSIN
Procedure: as §1, §2

CYP2C19 = CYP2C19 (Homo sapiens, UniProt P33261); assay: Cytochrome P450 reaction phenotyping, recombinant CYP2C19 (Bactosomes); settings: human, recombinant enzyme, pH 7.4
Procedure: as §1, §2

[4] = Stability in human cryopreserved hepatocytes without and with cimetidine or thiabendazole (Example 6); settings: human, cryopreserved hepatocytes (suspension), substrate 1 μM, no inhibitor
Procedure: Mebendazole (1 μM) was incubated with cryopreserved human hepatocytes for 60 min in the absence and presence of cimetidine at 30, 100 and 300 μM) and thiabendazole at 10, 30 and 100 μM and samples taken at the required time points. The amount of test compound remaining at each time point was analysed by LC-MS/MS. Appropriate control compounds were also incubated along with ethoxycoumarin, which was incubated in the absence and presence of cimetidine and thiabendazole.
The final incubation volume was 500 μL. Two control compounds were included, alongside appropriate vehicle control. A positive control compound, ethoxycoumarin, for CYP1A2 was included. The positive control compound was incubated without inhibitor and in the presence of each inhibitor. The reactions were stopped by transferring 50 μL of incubate to 100 μL acetonitrile containing internal standard at the appropriate time points (0, 5, 10, 20, 40 and 60 min). The termination plates were centrifuged at 2500 rpm at 4° C. for 30 min to precipitate the protein.

[5] = pH 7.4, with cimetidine 30 μM, plus 30 μM cimetidine
[6] = pH 7.4, with cimetidine 100 μM, plus 100 μM cimetidine
[7] = pH 7.4, with cimetidine 300 μM, plus 300 μM cimetidine
[8] = cryopreserved hepatocytes (suspension), no inhibitor

Sequence of CYP2C19 (P33261 whole entry): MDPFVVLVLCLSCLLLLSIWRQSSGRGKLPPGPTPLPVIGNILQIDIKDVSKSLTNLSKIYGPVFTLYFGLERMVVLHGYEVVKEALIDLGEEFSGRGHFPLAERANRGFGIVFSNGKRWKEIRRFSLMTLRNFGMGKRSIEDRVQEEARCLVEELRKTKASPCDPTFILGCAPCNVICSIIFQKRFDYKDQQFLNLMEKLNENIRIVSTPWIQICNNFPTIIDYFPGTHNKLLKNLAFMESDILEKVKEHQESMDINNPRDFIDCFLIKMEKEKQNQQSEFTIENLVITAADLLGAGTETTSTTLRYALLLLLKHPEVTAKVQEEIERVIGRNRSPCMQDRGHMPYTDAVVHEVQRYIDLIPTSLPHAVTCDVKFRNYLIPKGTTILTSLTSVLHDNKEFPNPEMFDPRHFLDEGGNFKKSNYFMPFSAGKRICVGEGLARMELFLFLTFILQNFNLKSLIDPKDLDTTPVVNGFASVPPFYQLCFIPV
Sequence of CYP2C9 (P11712 whole entry): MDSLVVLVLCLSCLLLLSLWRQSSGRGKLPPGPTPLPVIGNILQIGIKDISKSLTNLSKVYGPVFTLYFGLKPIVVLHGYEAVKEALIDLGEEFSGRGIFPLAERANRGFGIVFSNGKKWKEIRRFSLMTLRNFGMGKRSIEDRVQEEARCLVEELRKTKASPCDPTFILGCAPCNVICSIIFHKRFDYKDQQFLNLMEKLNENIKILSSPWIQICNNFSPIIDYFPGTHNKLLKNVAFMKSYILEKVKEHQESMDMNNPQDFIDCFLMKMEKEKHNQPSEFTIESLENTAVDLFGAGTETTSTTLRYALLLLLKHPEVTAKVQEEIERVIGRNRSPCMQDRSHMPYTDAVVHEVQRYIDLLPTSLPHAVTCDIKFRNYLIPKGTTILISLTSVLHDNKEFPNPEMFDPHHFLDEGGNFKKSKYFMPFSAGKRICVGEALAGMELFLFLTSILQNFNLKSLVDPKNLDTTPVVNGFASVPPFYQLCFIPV
Sequence of CYP3A4 (P08684 whole entry): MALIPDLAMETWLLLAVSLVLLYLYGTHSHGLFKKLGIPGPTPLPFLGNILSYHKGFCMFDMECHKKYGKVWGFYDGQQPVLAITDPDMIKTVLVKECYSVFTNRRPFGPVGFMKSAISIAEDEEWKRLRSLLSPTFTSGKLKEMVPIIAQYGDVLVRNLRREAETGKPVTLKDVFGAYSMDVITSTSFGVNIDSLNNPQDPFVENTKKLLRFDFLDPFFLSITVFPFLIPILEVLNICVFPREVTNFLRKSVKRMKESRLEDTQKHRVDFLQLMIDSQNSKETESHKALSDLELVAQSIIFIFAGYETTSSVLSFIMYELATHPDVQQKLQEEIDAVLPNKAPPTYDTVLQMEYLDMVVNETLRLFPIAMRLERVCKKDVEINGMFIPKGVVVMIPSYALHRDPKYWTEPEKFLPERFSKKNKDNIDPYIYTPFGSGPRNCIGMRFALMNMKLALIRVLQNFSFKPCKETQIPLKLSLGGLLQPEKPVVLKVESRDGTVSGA
Sequence of CYP2D6 (P10635 whole entry): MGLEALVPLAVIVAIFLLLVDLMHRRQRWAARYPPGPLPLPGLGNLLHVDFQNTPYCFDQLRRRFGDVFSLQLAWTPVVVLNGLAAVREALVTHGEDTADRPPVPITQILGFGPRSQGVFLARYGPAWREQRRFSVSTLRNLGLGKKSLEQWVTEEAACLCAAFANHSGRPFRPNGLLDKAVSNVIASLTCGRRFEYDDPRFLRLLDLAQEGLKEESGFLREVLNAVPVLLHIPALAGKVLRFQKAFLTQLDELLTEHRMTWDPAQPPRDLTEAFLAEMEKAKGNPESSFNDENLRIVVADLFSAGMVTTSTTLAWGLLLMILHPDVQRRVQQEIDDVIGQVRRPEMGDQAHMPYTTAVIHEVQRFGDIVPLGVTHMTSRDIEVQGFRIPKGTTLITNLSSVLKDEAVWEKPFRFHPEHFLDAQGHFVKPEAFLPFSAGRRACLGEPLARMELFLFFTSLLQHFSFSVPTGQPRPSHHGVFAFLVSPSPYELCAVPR

- half-life at 1 μM [1, 5]: 1.09 h
- microsomal CLint at 1 μM [1, 5]: 21.2 µL/min/mg
- half-life at 1 μM [1, 6]: 1.32 h
- microsomal CLint at 1 μM [1, 6]: 17.6 µL/min/mg
- half-life at 1 μM [1, 7]: 1.66 h
- microsomal CLint at 1 μM [1, 7]: 13.9 µL/min/mg
- microsomal CLint at 1 μM ([1]; pH 7.4, with furafylline 3 μM, plus 3 μM furafylline): 3 to 49 µL/min/mg
- microsomal CLint at 1 μM ([1]; pH 7.4, with furafylline 10 μM, plus 10 μM furafylline): 2 to 58 µL/min/mg
- microsomal CLint at 1 μM ([1]; pH 7.4, with furafylline 30 μM, plus 30 μM furafylline): 2.71 µL/min/mg
- half-life at 1 μM ([1]; pH 7.4, no inhibitor): 1.03 h
- microsomal CLint at 1 μM ([1]; pH 7.4, no inhibitor): 22.4 µL/min/mg
- CLint ([1]; plus 3 μM furafylline): 3.49 μL/min/mg protein
- CLint ([1]; plus 10 μM furafylline): 2.58 μL/min/mg protein
- half-life at 1 μM [2, 8]: 0.215 h
- half-life at 1 μM ([2]; cryopreserved hepatocytes, with cimetidine 30 μM, cimetidine 30 μM): 0.223 h
- half-life at 1 μM ([2]; cryopreserved hepatocytes, with cimetidine 100 μM, cimetidine 100 μM): 0.262 h
- half-life at 1 μM ([2]; cryopreserved hepatocytes, with cimetidine 300 μM, cimetidine 300 μM): 0.313 h
- half-life at 1 μM ([2]; cryopreserved hepatocytes, with furafylline 3 μM, furafylline 3 μM): 0.993 h
- half-life at 1 μM ([2]; cryopreserved hepatocytes, with furafylline 10 μM, furafylline 10 μM): 1.49 h
- half-life at 1 μM ([2]; cryopreserved hepatocytes, with furafylline 30 μM, furafylline 30 μM): 1.83 h
Structure (SMILES): CCOc1ccc(NC(C)=O)cc1 [Phenacetin]

Structure (SMILES): CCC[S+]([O-])c1ccc2[nH]c(NC(=O)OC)nc2c1 (centres unmarked) [Ricobendazole, albendazole sulphoxide]
- metabolism by recombinant enzyme (CYP2B6): not metabolised
- half-life at 1 μM (CYP3A4): 8.15 ± 11.4 h
- half-life at 1 μM (CYP2D6): 7.75 ± 4.55 h
- half-life at 1 μM (CYP2C9): 4.53 ± 2.67 h
- metabolism by recombinant enzyme (CYP2C8): not metabolised
- microsomal CLint at 0.1 μM ([3]; pH 7.4, with cimetidine 30 μM, 0.1 μM, 1 mg/mL, cimetidine 30 μM, read-out: CLint): 3.15 ± 1.24 µL/min/mg
- half-life at 0.1 μM ([3]; pH 7.4, with cimetidine 30 μM, 0.1 μM, 1 mg/mL, cimetidine 30 μM): 3.67 h
- microsomal CLint at 0.1 μM ([3]; pH 7.4, with cimetidine 100 μM, 0.1 μM, 1 mg/mL, cimetidine 100 μM, read-out: CLint): 3.43 ± 1.56 µL/min/mg
- half-life at 0.1 μM ([3]; pH 7.4, with cimetidine 100 μM, 0.1 μM, 1 mg/mL, cimetidine 100 μM): 3.37 h
- microsomal CLint at 0.1 μM ([3]; pH 7.4, with cimetidine 300 μM, 0.1 μM, 1 mg/mL, cimetidine 300 μM, read-out: CLint): 3.54 ± 1.09 µL/min/mg
- half-life at 0.1 μM ([3]; pH 7.4, with cimetidine 300 μM, 0.1 μM, 1 mg/mL, cimetidine 300 μM): 3.27 h
- microsomal CLint at 0.1 μM ([3]; pH 7.4, with furafylline 3 μM, read-out: CLint): 1.27 ± 2.47 µL/min/mg
- half-life at 0.1 μM ([3]; pH 7.4, with furafylline 3 μM): 9.08 h
- microsomal CLint at 0.1 μM ([3]; pH 7.4, with furafylline 10 μM, read-out: CLint): 4.31 ± 2.48 µL/min/mg
- half-life at 0.1 μM ([3]; pH 7.4, with furafylline 10 μM): 2.68 h
- microsomal CLint at 0.1 μM ([3]; pH 7.4, with furafylline 30 μM, read-out: CLint): 2.92 ± 1.75 µL/min/mg
- half-life at 0.1 μM ([3]; pH 7.4, with furafylline 30 μM): 3.95 h
- microsomal CLint at 0.1 μM ([3]; pH 7.4, 0.1 μM, 1 mg/mL, no inhibitor, read-out: CLint): 2.83 ± 1.76 µL/min/mg
- half-life at 0.1 μM ([3]; pH 7.4, 0.1 μM, 1 mg/mL, no inhibitor): 4.08 h
- microsomal CLint at 0.1 μM ([3]; optimisation, 0.1 μM and 1 mg/mL protein, read-out: intrinsic clearance): 6.63 ± 1.84 µL/min/mg
- microsomal CLint at 1 μM ([3]; optimisation, 1 μM and 0.5 mg/mL protein, read-out: intrinsic clearance): 4.39 ± 2.77 µL/min/mg
- % remaining (CYP1A2; CYP1A2, substrate 1 μM, 45 min): 85%
- half-life at 1 μM (CYP1A2; human, recombinant enzyme, pH 7.4): 4 ± 0.635 h
- half-life at 1 μM (CYP2C19): 10.3 ± 10.8 h

- hepatocyte CLint at 1 µM ([4]; CLint): 229 µL/min/1e6 cells
- half-life at 1 μM ([4]; t½): 6.05 min
- half-life at 1 μM [2, 8]: 0.133 h
Structure (SMILES): O=c1ccc2ccc(O)cc2o1 [Umbelliferone]
